Data on 14 compounds can be found in patent EP1397353B1, “2-(2,6-DISUBSTITUTED PHENYL)-4-ARYL-5-ALKYL-1,3-OXAZOLINE COMPOUNDS USEFUL AS INSECTICIDES AND ACARICIDES” (Dow AgroSciences LLC, priority 2001, dated 2003).

Holding throughout (format): in vivo
For assay [1], the system named is cotton aphid (Aphis gossypii). The assay can be described thus: Insecticidal test for cotton aphid (spray on infested squash cotyledons). The following applies: 50 ppm spray, all life stages, 3 days, rating of % Control. On the procedure:
Insecticidal test for cotton aphid (Aphis gossypii)
To prepare spray solutions, 1 mg of each test compound was dissolved into 1 mL of a 90:10 acetone:ethanol solvent. This 1 mL of chemical solution was added to 19 mL of water containing 0.05% Tween 20 surfactant to produce a 50 ppm spray solution.
Squash cotyledons were infested with cotton aphid (all life stages)16-20 hours prior to application of spray solution. The solution was sprayed on both sides of each infested squash cotyledon (0.5 mL x 2 each side) with a sweeping action until runoff. The plants were allowed to air dry and held for 3 days in a controlled room at 26 °C and 40% RH after which time the test was graded. Grading was by actual count using a dissecting microscope and comparison of test counts to the untreated check.

Assay [2] deals with two-spotted spider mite (Tetranychus urticae). Put plainly: Insecticidal test for two-spotted spider mite, ovicide method. Conditions: for pest or weed control: Tetranychus urticae, read-out: SM, activity against two-spotted spider mite. As to the method:
Insecticidal test for two-spotted spider mite (Tetranychus urticae)
Ten adult female two-spotted spider mites were placed on eight 2.2 cm leaf discs of cotton leaf, allowed to oviposit over 24 hours, and thereafter removed. […] Discs were placed on an agar substrate and held at 24 °C and 90% RH for 6 days.

The subject of assay [3] is tobacco budworm (Heliothis virescens). The assay can be described thus: Insecticidal test for tobacco budworm (leaf-dip, cotton cotyledon discs). Conditions: dipped cotton cotyledon discs, 2nd instar larvae, 5 days, rating of % Control; for pest or weed control at 400 ppm: Heliothis virescens, 120 h, read-out: TBW, activity at 400 ppm against tobacco budworm. On the procedure: (§1) Insecticidal test for tobacco budworm (Heliothis virescens), beet armyworm (Spodoptera exigua), and cabbage looper (Trichoplusia ni).
(§2) To prepare test solution, the test compound was formulated at 400 ppm in 7.5 mL of 2 acetone: 1 tap water. 250 µL of the test solution was pipetted upon the surface of 8 mL of lepidopteran diet (modified Shorey) contained in each of five one-ounce plastic cups (one cup = 1 replication). […] After airdrying, the treated leaf discs were placed individually into one-ounce plastic cups. Each dried, treated cotton cotyledon disc was infested with a 2nd instar tobacco budworm larva, and each cabbage leaf disc was infested with a 2nd instar cabbage looper larva. Cups containing the treated substrates and larvae were capped and then held in a growth chamber at 25 °C, 50-55% RH, and 14 hr light: 10 hr dark for 5 days.

Assay [4] concerns beet armyworm (Spodoptera exigua). Put plainly: Insecticidal test for beet armyworm (treated lepidopteran diet). The following applies: 2nd instar larvae, 5 days, rating of % Control; for pest or weed control at 400 ppm: Spodoptera exigua, 120 h, read-out: BAW, activity at 400 ppm against beet armyworm. On the procedure:
as §1, §2

The subject of assay [5] is cabbage looper (Trichoplusia ni). The assay can be described thus: Insecticidal test for cabbage looper (leaf-dip, cabbage leaf discs). The following applies: dipped cabbage leaf discs, 2nd instar larvae, 5 days, rating of % Control; for pest or weed control at 400 ppm: Trichoplusia ni, foliar, 120 h, read-out: CL, activity at 400 ppm against cabbage looper. As to the method: as §1, §2

[6] abbreviates: foliar, 144 h, ovicide method, cotton leaf discs, 6 days, rating of % Control.

As to `C[C@@H]1OC(c2c(F)cccc2F)=N[C@H]1c1ccc(Br)cc1` [Compound 46, (4S,5S)-4-(4-bromophenyl)-2-(2,6-difluorophenyl)-5-methyl-4,5 dihydro-1,3-oxazole], in assay [1], the “CA, activity at 50 ppm against cotton aphid” value (“CA, activity at 50 ppm” for short) is recorded as “A (90-100)”. For the same compound, the pest or weed control in assay [2] (setting [6]) lay in the range of 90 to 100%.

For `C[C@H]1OC(c2c(F)cccc2F)=N[C@@H]1c1ccc(-c2ccc(OC(F)(F)F)cc2)cc1` [Compound 53, (4R,5R)-2-(2,6-difluorophenyl)-5-methyl-4-[4'-(trifluoromethoxy)-1,1'-biphenyl-4-yl]-4,5-dihydro-1,3-oxazole], the “TBW, activity at 400 ppm against tobacco budworm” value in assay [3] is recorded as “B (80-89)”. In assay [4], the “BAW, activity at 400 ppm against beet armyworm” value was “A (90-100)”. Besides, the “CL, activity at 400 ppm against cabbage looper” value in assay [5] is “A (90-100)”. The “CA, activity at 50 ppm” value in assay [1] is listed as “F (less than 50)”. Besides, the “SM, activity at 2.5 ppm against two-spotted spider mite” value in assay [2] (ovicide method, cotton leaf discs, 6 days, rating of % Control) was “A (90-100)”.

In the case of `C[C@H]1OC(c2c(F)cccc2F)=N[C@@H]1c1ccc(I)cc1` (mixture of isomers) [Compound 22, (4R, 5R)- and (4S,5S)-4-(4-iodophenyl)-2-(2,6-difluorophenyl)-5-methyl-4,5-dihydro-1,3-oxazole], the figures for the pest or weed control at 400 ppm in assay [4] and in assay [5] were 90 to 100% and below 50%, respectively. The “CA, activity at 50 ppm” value in assay [1] was “A (90-100)”. Moreover, in assay [2] (setting [6]), the pest or weed control is 90 to 100%.

In the case of `C[C@H]1OC(c2c(F)cccc2F)=N[C@@H]1c1ccc(Br)cc1` (mixture of isomers) [Compound 24, (4R,5R)- and (4S,5S)-4-(4-bromophenyl)-2-(2,6-difluorophenyl)-5-methyl-4,5-dihydro-1,3-oxazole], the pest or weed control at 400 ppm in assay [3] and in assay [5] was below 50% each time. Further, the “CA, activity at 50 ppm” value in assay [1] is “A (90-100)”. In addition, the pest or weed control in assay [2] (setting [6]) lay in the range of 90 to 100%.

As for `C[C@@H]1OC(c2c(F)cccc2Cl)=N[C@@H]1c1ccc(-c2ccc(C(F)(F)F)cc2)cc1` (mixture of isomers) [Compound 4, (4R,5S)- and (4S,5R)-2-(2-chloro-6-fluorophenyl)-5-methyl-4-[4'-(trifluoromethyl)-1,1'-biphenyl-4-yl]-4,5-dihydro-1,3-oxazole], the pest or weed control at 400 ppm in assay [3], in assay [4] and in assay [5] was 90 to 100% in each case. In assay [1], the “CA, activity at 50 ppm” value is recorded as “A (90-100)”. Moreover, the pest or weed control in assay [2] (setting [6]) was in the range of 90 to 100%.

Turning to `C[C@@H]1OC(c2c(F)cccc2F)=N[C@H]1c1ccc(-c2ccc(F)cc2)cc1` (mixture of isomers) [Compound 25, (4S,5S)- and (4R,5R)-2-(2,6-difluorophenyl)-4-(4'-fluoro-1,1'-biphenyl-4-yl)-5-methyl-4,5-dihydro-1,3-oxazole], the pest or weed control at 400 ppm in assay [3], in assay [4] and in assay [5] was 90 to 100% in each case. Besides, in assay [2] (setting [6]), the pest or weed control lay in the range of 90 to 100%.

Consider `C[C@@H]1OC(c2c(F)cccc2F)=N[C@@H]1c1ccc(-c2ccc(OC(F)(F)F)cc2)cc1` (stereo in doubt) [Compound 51, (4R,5S)-2-(2,6-difluorophenyl)-5-methyl-4-[4'-(trifluoromethoxy)-1,1'-biphenyl-4-yl]-4,5-dihydro-1,3-oxazole], for which the pest or weed control at 400 ppm in assay [3] is 80 to 89%; in assay [4], 90 to 100%; in assay [5] it was 90 to 100%. For the same compound, in assay [1], the “CA, activity at 50 ppm” value is on record as “F (less than 50)”. The pest or weed control in assay [2] (setting [6]) lay in the range of 90 to 100%.

`C[C@@H]1OC(c2c(F)cccc2F)=N[C@H]1c1ccc(-c2cccc(C(F)(F)F)c2)cc1` (mixture of isomers) [Compound 28, (4S,5S)- and (4R,5R)-2-(2,6-difluorophenyl)-5-methyl-4-[3'-(trifluoromethyl)-1,1'-biphenyl-4-yl]-4,5-dihydro-1,3-oxazole]: the pest or weed control at 400 ppm in assay [3], in assay [4] and in assay [5] was 90 to 100% in each case. In addition, the pest or weed control in assay [2] (setting [6]) lay in the range of 90 to 100%.

In the case of `CCOc1ccc(-c2ccc([C@H]3N=C(c4c(F)cccc4F)O[C@H]3C)c(C)c2)cc1` (mixture of isomers) [Compound 41, (4R,5S)- and (4S,5R)-2-(2,6-difluorophenyl)-4-(4'-ethoxy-3-methyl-1,1'-biphenyl-4-yl)-5-methyl-4,5-dihydro-1,3-oxazole], the pest or weed control at 400 ppm in assay [3], in assay [4] and in assay [5] was 90 to 100% each time. Moreover, the pest or weed control in assay [2] (setting [6]) is 60 to 69%.

Consider `CCOc1ccc(-c2ccc([C@@H]3N=C(c4c(F)cccc4F)O[C@H]3C)cc2)cc1` (mixture of isomers) [Compound 33, (4S,5S)- and (4R,5R)-2-(2,6-difluorophenyl)-4-(4'-ethoxy-1,1'-biphenyl-4-yl)-5-methyl-4,5-dihydro-1,3-oxazole], for which the pest or weed control at 400 ppm in assay [3] lay in the range of 80 to 89%; in assay [4], 90 to 100%; in assay [5], 90 to 100%. In assay [2] (setting [6]), the pest or weed control was 80 to 89%.

Consider `C[C@@H]1OC(c2c(F)cccc2F)=N[C@@H]1c1ccc(I)cc1` (racemic) [Compound 1, (4R,5S)- and (4S,5R)-4-(4-iodorphenyl)-2-(2,6-difluorophenyl)-5-methyl-4,5-dihydro-1,3-oxazole], for which the “CA, activity at 50 ppm” value in assay [1] is “A (90-100)”. In assay [2] (foliar, 144 h), the “SM, activity at 2.5 ppm against two-spotted spider mite” value is listed as “A (90-100)”.

Consider `C[C@H]1OC(c2c(F)cccc2F)=N[C@@H]1c1ccc(-c2ccc(OC(F)(F)F)cc2)cc1` (mixture of isomers) [Compound 27, (4R,5R)- and (4S,5S)-2-(2,6-difluorophenyl)-4-(4'-trifluoromethoxy-1,1'-biphenyl-4-yl)-5-methyl-4,5-dihydro-1,3-oxazole], for which the pest or weed control at 400 ppm in assay [3] lay within 80 to 89%; in assay [4], 90 to 100%; in assay [5] it was 90 to 100%. For the same compound, in assay [1], the “CA, activity at 50 ppm” value was “E (50-59)”. Besides, the pest or weed control in assay [2] (setting [6]) was 90 to 100%.

`C[C@@H]1OC(c2c(F)cccc2F)=N[C@H]1c1ccc(-c2ccc(C(F)(F)F)cc2)cc1` (mixture of isomers) [Compound 26, (4S,5S)- and (4R,5R)-2-(2,6-difluorophenyl)-5-methyl-4-[4'-(trifluoromethyl)-1,1'-biphenyl-4-yl]-4,5-dihydro-1,3-oxazole]: the pest or weed control at 400 ppm in assay [3], in assay [4] and in assay [5] was 90 to 100% in each case. The pest or weed control in assay [2] (setting [6]) is 90 to 100%.

With `CCOc1ccc(-c2ccc([C@@H]3N=C(c4c(F)cccc4F)O[C@H]3C)c(C)c2)cc1` (mixture of isomers) [Compound 45, (4S,5S)- and (4R,5R)-2-(2,6-difluorophenyl)-4-(4'-ethoxy-3-methyl-1,1'-biphenyl-4-yl)-5-methyl-4,5-dihydro-1,3-oxazole], the pest or weed control at 400 ppm in assay [3], in assay [4] and in assay [5] was 90 to 100% in each case. The pest or weed control in assay [2] (setting [6]) was below 50%.
